In patent publication US20070026431A1, “Modulation of MAPK-mediated phosphorylation and/or FBXW8-mediated ubiquitinylation of cyclin D1 in modulation of cellular proliferation” (priority 2005, published 2007):

Experiments:
Format in all cases: cell-based, human
[1] = test system: cyclin D1 protein; assay: Pulse-chase analysis of cyclin D1 protein in HCT 116 cells; conditions: HCT 116; 5 μM BIO 24 hours
Description: FIG. 11 illustrates that ERK/MAPK is identified as the major kinase that is responsible for the stability of cyclin D1 protein. Panels A-F: Pulse-chase analysis of cyclin D1 protein in HCT 116 cells after exposure to the MEK inhibitor U0126 (A-C) or the GSK3 inhibitor BIO (D-F). Exponentially growing HCT 116 cells were treated with either DMSO or 10 μM of U0126 (A-C) for 30 minutes, or DMSO or 5 μM of BIO (D-F) for 24 hours. Panels A and D: Cells were pulse-labeled with ^35S-methionine for 1 hour. Subsequently these cells were chased with cold methionine for the indicated times, and then lysed respectively. Cyclin D1 was immunoprecipitated and then analyzed with SDS-PAGE. Autoradiography was performed. Levels of metabolically labeled-cyclin D1 were estimated by quantitative scanning using the Quantity One (Bio-Rad) software and blotted on the graph to determine the half-life of cyclin D1. […]
FIG. 18 illustrates that knockdown of FBXW8, or its partner CUL1 or CUL7 expression through siRNA stabilizes cyclin D1 expression in HCT 116 colon cancer cells. […] Cyclin D1 was immunoprecipitated and then analyzed with SDS-PAGE. Levels of metabolically labeled-cyclin D1 were estimated by quantitative scanning using the Quantity One software (Bio-Rad) and blotted on the graph to determine the half-life of cyclin D1 (D).
Pulse-Chase Analysis. […] Cyclin D1 was immunoprecipitated and then analyzed with SDS-PAGE. […]

[2] = test system: cyclin D1 protein (Thr286 phosphorylation); assay: Western blot of cyclin D1 and p-Thr286 cyclin D1 in HA-CD1 SW480 cells treated with kinase inhibitors; conditions: HA-WT CD1 SW480 cells; 24 hours of treatment
Description: Immunoblot analysis was performed. […] Asterisks indicate endogenous cyclin D1 expression. Panel B: Western blot analysis with fractionated nuclear proteins. […] Cell-cycle distribution was shown as bar graphs. Nuclear proteins were fractionated at indicated time points. […] Levels of total and phosphorylated cyclin D1 were determined.
(§1) Immunoblotting Analysis. […] SDS-PAGE was described previously (Tetsu and McCormick, 2003).
To identify the kinase responsible for cyclin D1 Thr286 phosphorylation, small molecule inhibitors of GSK3β, CDK4, and MEK were used to determine whether they were able to alter the phosphorylation and stability of ectopically expressed WT cyclin D1 protein in cultured cells (FIG. 5, Panels C and D). Ectopically expressed WT cyclin D1 protein was used to assess the stability of cyclin D1 protein. The endogenous expression was not assessed because transcription of cyclin D1 is regulated by the Ras/MAPK signaling. Therefore, endogenous expression of cyclin D1 is unable to be detected following inhibition of MAPK activities through the MEK/MAPK inhibitors or serum starvation (Tetsu et al., 2003. Cancer Cell. 3, 233-45).

[3] = test system: GSK3α/β; assay: Phosphorylation-specific blot for GSK3α/β, SW480 cells; conditions: 24 hours of treatment
[4] = test system: cyclin D1 protein (Thr286 phosphorylation); assay: Western blot of total cyclin D1 and pThr286 in HCT 116 cells after U0126 or GSK3 inhibitor; conditions: cycling HCT 116; GSK3α/β inhibitor 24 hours
Description: FIG. 11 illustrates that ERK/MAPK is identified as the major kinase that is responsible for the stability of cyclin D1 protein. Panels A-F: Pulse-chase analysis of cyclin D1 protein in HCT 116 cells after exposure to the MEK inhibitor U0126 (A-C) or the GSK3 inhibitor BIO (D-F). Exponentially growing HCT 116 cells were treated with either DMSO or 10 μM of U0126 (A-C) for 30 minutes, or DMSO or 5 μM of BIO (D-F) for 24 hours. Panels A and D: Cells were pulse-labeled with ^35S-methionine for 1 hour. Subsequently these cells were chased with cold methionine for the indicated times, and then lysed respectively. Cyclin D1 was immunoprecipitated and then analyzed with SDS-PAGE. Autoradiography was performed. Levels of metabolically labeled-cyclin D1 were estimated by quantitative scanning using the Quantity One (Bio-Rad) software and blotted on the graph to determine the half-life of cyclin D1. Panels B and E: Western blot analysis. The membrane was blotted with a cyclin D1 Thr286 phosphorylation specific (pThr286), total cyclin D1, a phosphorylation specific ERK, and total ERK antibodies (B), or a pThr286, cyclin D1, a GSKα/β phosphorylation specific, and GSK3β antibodies (E). Panels C and F: Cell cycle distributions were shown. Panel G: Western blot analysis following transfection of various forms of HA-tagged cyclin D1 expression vectors in both NIH 3T3 mouse fibroblast (left) and HCT 116 colon cancer (right) cells. In lane 5 and 10, cells were treated with 5 μM of BIO for further 24 hours following transfection of the ΔD CD1 mutant.
as §1
To determine the contribution of ERK/MAPK to the stability of cyclin D1 in cancer cells, MAPK activity was inhibited with the MEK inhibitor U0126 (Favata et al., 1998. J Bio Chem. 273, 18623-32; Davies et al., 2000. Biochem J. 351, 95-105). Exponentially growing HCT 116 colon cancer cells were treated with U0126 for 30 minutes (FIG. 11, Panels A-C).
In contrast, no effect on phosphorylation status and stability of cyclin D1 protein through inhibition of GSK3α/β ([…], Panels D-F) were detected. […] Cycling HCT 116 colon cancer cells were treated with BIO for 24 hours (FIG. 11, Panels D-F). A phosphorylation specific antibody to GSK3α and β was used to measure their endogenous activities because phosphorylations of GSK3α at Tyr279 and GSK3β at Tyr216 are intramolecular autophosphorylation events in the cells. Thus, phosphorylation status reflects their kinase activities (Cole et al., 2004. Biochem J. 377, 249-55).

[5] = test system: HCT 116 colon cancer cells; assay: Flow-cytometric cell cycle analysis, HCT 116 cells; conditions: BIO 24 hours
Description: Cell cycle analysis was carried out as described previously (Tetsu et al. (1999) Nature 398: 422-6; Tetsu et al. (2003) Cancer Cell 3: 233-45.

O=C1Nc2cc(Br)ccc2/C1=C1/Nc2ccccc2/C1=N\O [BIO]
half-life of cyclin D1 protein [1]: no significant difference | total cyclin D1 expression and its phosphorylated protein [2]: no significant difference | phosphorylated forms of GSK3α/β [3]: disappeared | expression of total cyclin D1 and its phosphorylated protein [4]: no significant difference | cell cycle profile [5]: without affecting
